Molecular target: T1, K. phaffii Adh2p (Komagataella pastoris, UniProt A0A1B2JBQ8)
T1 construct: gene ADH2; purified natively from wild-type K. phaffii; 40 kDa band
T1 sequence (A0A1B2JBQ8 1-350): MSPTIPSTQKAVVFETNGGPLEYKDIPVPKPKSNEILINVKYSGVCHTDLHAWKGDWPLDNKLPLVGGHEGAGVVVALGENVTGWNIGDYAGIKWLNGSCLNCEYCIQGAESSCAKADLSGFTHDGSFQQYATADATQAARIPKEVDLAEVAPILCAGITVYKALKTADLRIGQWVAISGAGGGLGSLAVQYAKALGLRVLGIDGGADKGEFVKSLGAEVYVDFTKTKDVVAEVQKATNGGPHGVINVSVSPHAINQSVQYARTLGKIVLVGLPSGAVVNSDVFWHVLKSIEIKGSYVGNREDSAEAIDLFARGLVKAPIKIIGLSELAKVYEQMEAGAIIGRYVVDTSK
Assay: NADH and NADPH oxidation at […] nm
Assay type: biochemical
Conditions: 0.01-10 mM butyraldehyde, NADH or NADPH, 1 mM ZnCl2, 50 mM HEPES pH 7.5, 30 C

Compound	NADH and NADPH oxidation at 340 nm
NC(=O)C1=CN([C@@H]2O[C@H](COP(=O)(O)OP(=O)(O)OC[C@H]3O[C@@H](n4cnc5c(N)ncnc54)[C@H](O)[C@@H]3O)[C@@H](O)[C@H]2O)C=CC1 [NADH]	Both NADH and NADPH reduced butyraldehyde
CCCC=O [butyraldehyde]	Both NADH and NADPH reduced butyraldehyde
